In ChEMBL document CHEMBL5046279, “Discovery of a Partial Glucokinase Activator Clinical Candidate: Diethyl ((3-(3-((5-(Azetidine-1-carbonyl)pyrazin-2-yl)oxy)-5-isopropoxybenzamido)-1H-pyrazol-1-yl)methyl)phosphonate (BMS-820132)” (J Med Chem, 2022):
pIC50: −log10 of the molar value. In brackets after ≈: the same amount, converted by molar mass.

Key:
Mus musculus [1] = assay: Anti-hyperglycemic activity in C57BL/6J DIO mouse assessed as reduction in plasma glucose AUC at 10 umol/kg incubated for 120 mins by OGTT; type: functional; parameters: scale not given: the % may be the effect or the level left; settings: dose 10 µM/Kg, 2 h, at 10 µmol/kg
[2] = AUC (0 to 24 hrs) in Sprague-Dawley rat at 5 mg/kg, po measured upto 24 hrs by LC-MS/MS analysis; type: ADME, organism-based; parameters: route oral, dose 5 mg/kg, time <=24; settings: in vivo
CHO = assay: Mutagenicity in CHO cells; type: toxicity, cell-based, Cricetulus griseus; settings: chinese hamster
[3] = Protein binding in mouse serum; type: ADME, cell-free; settings: pooled result: one value given for 5 cell lines, strains, targets or settings, read-out: PB (converted)
[4] = Oral bioavailability in Beagle dog at 3 mg/kg measured upto 24 hrs; type: ADME, organism-based, Canis lupus familiaris; settings: in vivo
[5] = Microsomal stability in human liver microsomes assessed as parent compound remaining at 0.5 uM measured after 10 mins in presence of NADPH; type: ADME, Microsome; settings: read-out: Stability
[6] = AUC (0 to 24 hrs) in CD1 mouse at 5 mg/kg, po measured upto 24 hrs by LC-MS/MS analysis; type: ADME, organism-based; parameters: route oral, dose 5 mg/kg, time <=24; settings: in vivo
Mus musculus [7] = assay: Anti-hyperglycemic activity in C57BL/6J DIO mouse assessed as reduction in plasma glucose AUC at 0.3 umol/kg incubated for 120 mins by OGTT; type: functional; parameters: scale not given: the % may be the effect or the level left; settings: dose 0.3 µM/Kg, 2 h, at 0.3 µmol/kg
[8] = Volume of distribution at steady state in CD1 mouse at 2.5 mg/kg, iv measured upto 24 hrs by LC-MS/MS analysis; type: ADME, organism-based; settings: in vivo, read-out: Vdss
[9] = Aqueous solubility of the compound at pH 6.5 using amorphous form of sample; type: physicochemical; settings: aqueous solution
Mus musculus [10] = assay: Anti-hyperglycemic activity in C57BL/6J DIO mouse assessed as reduction in plasma glucose level at 3 umol/kg measured after 14 days; type: functional; parameters: scale not given: the % may be the effect or the level left; settings: dose 3 µM/Kg; time 14 day; at 3 µmol/kg
[11] = Cmax in CD1 mouse at 5 mg/kg, po measured upto 24 hrs by LC-MS/MS analysis; type: ADME, organism-based; parameters: route oral, dose 5 mg/kg, time <=24; settings: in vivo
[12] = Half life in CD1 mouse at 2.5 mg/kg, iv measured upto 24 hrs by LC-MS/MS analysis; type: ADME, organism-based; settings: in vivo
[13] = AUC (0 to 24 hrs) in Sprague-Dawley rat at 2.5 mg/kg, iv measured upto 24 hrs by LC-MS/MS analysis; type: ADME, organism-based; parameters: route intravenous, dose 2.5 mg/kg, time <=24; settings: in vivo
[14] = Volume of distribution at steady state in Sprague-Dawley rat at 2.5 mg/kg, iv measured upto 24 hrs by LC-MS/MS analysis; type: ADME, organism-based; settings: in vivo, read-out: Vdss
[15] = Systemic plasma clearance in cynomolgus monkey at 3 mg/kg, iv measured upto 24 hrs; type: ADME, organism-based, Macaca fascicularis
Salmonella typhimurium [16] = assay: Mutagenicity in Salmonella typhimurium TA98 at 5000 ug/plate in presence of S9 fraction by Ames test; type: toxicity, organism-based; settings: salmonella enterica subsp. enterica serovar typhimurium, dose 5000 µg
[17] = biological target: T1, Nuclear receptor subfamily 1 group I member 2 (Homo sapiens, UniProt O75469); assay: Induction of human PXR upto 50 uM
T1 sequence (O75469 whole entry): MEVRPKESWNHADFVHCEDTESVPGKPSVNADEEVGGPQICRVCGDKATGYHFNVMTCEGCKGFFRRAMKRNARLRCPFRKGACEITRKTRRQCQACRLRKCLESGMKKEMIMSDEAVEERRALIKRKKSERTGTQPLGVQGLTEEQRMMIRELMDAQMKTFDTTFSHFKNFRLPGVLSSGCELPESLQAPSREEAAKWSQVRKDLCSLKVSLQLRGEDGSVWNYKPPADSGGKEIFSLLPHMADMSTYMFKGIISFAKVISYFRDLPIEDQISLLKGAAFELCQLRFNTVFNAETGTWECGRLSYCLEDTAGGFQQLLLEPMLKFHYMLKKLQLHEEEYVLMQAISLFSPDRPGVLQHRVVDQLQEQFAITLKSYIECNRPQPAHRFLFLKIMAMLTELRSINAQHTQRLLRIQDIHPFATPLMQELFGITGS

Salmonella typhimurium [18] = assay: Mutagenicity in Salmonella typhimurium TA100 at 5000 ug/plate in presence of S9 fraction by Ames test; type: toxicity, organism-based; settings: salmonella enterica subsp. enterica serovar typhimurium, dose 5000 µg
[19] = Systemic plasma clearance in Sprague-Dawley rat at 2.5 mg/kg, iv measured upto 24 hrs by LC-MS/MS analysis; type: ADME, organism-based
[20] = biological target: Voltage-gated inwardly rectifying potassium channel KCNH2 (Homo sapiens, UniProt Q12809); assay: Inhibition of hERG by patch clamp method; type: toxicity
Sequence of Voltage-gated inwardly rectifying potassium channel KCNH2 (Q12809 whole entry): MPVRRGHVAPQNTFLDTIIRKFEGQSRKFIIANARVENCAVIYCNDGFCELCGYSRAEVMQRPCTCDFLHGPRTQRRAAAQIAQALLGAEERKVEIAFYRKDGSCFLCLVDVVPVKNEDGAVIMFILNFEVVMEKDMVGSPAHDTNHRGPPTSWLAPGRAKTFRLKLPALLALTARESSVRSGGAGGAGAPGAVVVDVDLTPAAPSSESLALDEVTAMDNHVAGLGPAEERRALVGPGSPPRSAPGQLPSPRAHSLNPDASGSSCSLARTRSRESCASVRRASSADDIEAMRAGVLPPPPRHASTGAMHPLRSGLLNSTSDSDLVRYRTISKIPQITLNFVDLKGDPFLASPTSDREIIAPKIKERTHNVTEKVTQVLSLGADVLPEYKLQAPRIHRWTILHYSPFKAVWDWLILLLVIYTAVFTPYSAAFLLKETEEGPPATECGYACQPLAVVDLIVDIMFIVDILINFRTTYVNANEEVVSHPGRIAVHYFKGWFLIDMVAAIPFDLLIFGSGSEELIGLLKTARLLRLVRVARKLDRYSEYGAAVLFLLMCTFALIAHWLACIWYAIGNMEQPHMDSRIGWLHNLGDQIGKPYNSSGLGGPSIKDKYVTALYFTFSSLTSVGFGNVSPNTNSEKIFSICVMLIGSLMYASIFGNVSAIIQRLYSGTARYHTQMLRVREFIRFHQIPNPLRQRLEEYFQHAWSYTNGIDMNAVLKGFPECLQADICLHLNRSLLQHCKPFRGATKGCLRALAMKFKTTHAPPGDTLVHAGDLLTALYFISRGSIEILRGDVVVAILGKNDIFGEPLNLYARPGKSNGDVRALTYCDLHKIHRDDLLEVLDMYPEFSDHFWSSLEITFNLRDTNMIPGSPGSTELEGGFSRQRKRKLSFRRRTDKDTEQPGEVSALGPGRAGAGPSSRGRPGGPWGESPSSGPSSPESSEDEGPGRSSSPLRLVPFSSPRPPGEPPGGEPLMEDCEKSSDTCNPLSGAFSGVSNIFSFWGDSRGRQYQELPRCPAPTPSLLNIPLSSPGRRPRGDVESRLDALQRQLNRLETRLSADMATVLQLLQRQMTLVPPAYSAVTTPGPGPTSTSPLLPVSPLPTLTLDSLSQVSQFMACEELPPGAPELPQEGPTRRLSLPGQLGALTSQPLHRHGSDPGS

[21] = Tmax in cynomolgus monkey at 3 mg/kg, po measured upto 24 hrs; type: ADME, organism-based, Macaca fascicularis; settings: in vivo
[22] = AUC (0 to 24 hrs) in Beagle dog at 3 mg/kg, po measured upto 24 hrs; type: ADME, organism-based, Canis lupus familiaris; parameters: route oral, dose 3 mg/kg, time <=24; settings: in vivo
[23] = Tmax in Beagle dog at 3 mg/kg, po measured upto 24 hrs; type: ADME, organism-based, Canis lupus familiaris; settings: in vivo
[24] = AUC (0 to 24 hrs) in cynomolgus monkey at 3 mg/kg, iv measured upto 24 hrs; type: ADME, organism-based, Macaca fascicularis; parameters: route intravenous, dose 3 mg/kg, time <=24; settings: in vivo
[25] = Half life in cynomolgus monkey at 3 mg/kg, iv measured upto 24 hrs; type: ADME, organism-based, Macaca fascicularis; settings: in vivo
Mus musculus [26] = assay: Anti-hyperglycemic activity in C57BL/6J DIO mouse assessed as reduction in plasma glucose level at 3 umol/kg, po qd measured on day 14 by OGTT; type: functional; parameters: scale not given: the % may be the effect or the level left; settings: dose 3 µM/Kg; time 24 hrs; at 3 µmol/kg
Mus musculus [27] = assay: Anti-hyperglycemic activity in C57BL/6J DIO mouse assessed as reduction in plasma glucose level at 30 umol/kg measured at 1 hr post dose on day 1 by OGTT; type: functional; parameters: scale not given: the % may be the effect or the level left; settings: dose 30 µM/Kg, at 30 µmol/kg
Salmonella typhimurium [28] = assay: Mutagenicity in Salmonella typhimurium TA1537 at 5000 ug/plate in presence of S9 fraction by Ames test; type: toxicity, organism-based; settings: salmonella enterica subsp. enterica serovar typhimurium, dose 5000 µg
[29] = Protein binding in human serum; type: ADME, cell-free; settings: read-out: PB (converted)
[30] = Tmax in CD1 mouse at 5 mg/kg, po measured upto 24 hrs by LC-MS/MS analysis; type: ADME, organism-based; settings: in vivo
hERG (KCNH2) = hERG (KCNH2) (Homo sapiens, UniProt Q12809); assay: Inhibition of hERG channel at 30 uM by patch clamp assay relative to control; type: toxicity
Sequence of hERG (KCNH2) (Q12809 whole entry): as above

[31] = Volume of distribution at steady state in Beagle dog at 3 mg/kg, iv measured upto 24 hrs; type: ADME, organism-based, Canis lupus familiaris; settings: in vivo, read-out: Vdss
[32] = Systemic plasma clearance in CD1 mouse at 2.5 mg/kg, iv measured upto 24 hrs by LC-MS/MS analysis; type: ADME, organism-based
[33] = Half life in Beagle dog at 3 mg/kg, iv measured upto 24 hrs; type: ADME, organism-based, Canis lupus familiaris; settings: in vivo
Salmonella typhimurium [34] = assay: Mutagenicity in Salmonella typhimurium TA100 at 5000 ug/plate in absence of S9 fraction by Ames test; type: toxicity, organism-based; settings: salmonella enterica subsp. enterica serovar typhimurium; dose 5000 µg
[35] = Systemic plasma clearance in Beagle dog at 3 mg/kg, iv measured upto 24 hrs; type: ADME, organism-based, Canis lupus familiaris
Mus musculus [36] = assay: Anti-hyperglycemic activity in C57BL/6J DIO mouse assessed as reduction in plasma glucose AUC at 30 umol/kg, po measured after 120 mins by OGTT; type: functional; parameters: scale not given: the % may be the effect or the level left; settings: dose 30 µM/Kg, 2 h, at 30 µmol/kg
sodium channel = assay: Inhibition of sodium channel (unknown origin) at 1 Hz at 10 uM by patch clamp assay relative to control; type: toxicity; settings: human

Question: With `CCOP(=O)(Cn1ccc(NC(=O)c2cc(Oc3cnc(C(=O)N4CCC4)cn3)cc(OC(C)C)c2)n1)OCC` as the compound, how does the Activity (Mus musculus [1]) read?
Answer: Its Activity is -62%.

Question: And the AUC(0-t) [2]?
Answer: Its AUC(0-t) is 29.5 µM·h.

Question: And the Activity (CHO)?
Answer: The Activity was “Toxic”.

Question: And the fraction unbound [3]?
Answer: The fraction unbound was 0.168.

Question: And the bioavailability [4]?
Answer: Its bioavailability is 66%.

Question: And the remaining at 10 min, 0.5 µM [5]?
Answer: Its remaining at 10 min, 0.5 µM is 96%.

Question: What about the AUC(0-t) [6] of the same compound?
Answer: The AUC(0-t) was 49.7 µM·h.

Question: What about the Activity (Mus musculus [7]) of the same compound?
Answer: The Activity was -18%.

Question: What about the Vd [8] of the same compound?
Answer: Its Vd is 0.3 L/kg.

Question: And the solubility [9]?
Answer: Its solubility is 10 µg/mL (≈ 17.5 µM).

Question: And the Activity (Mus musculus [10])?
Answer: The Activity was -48%.

Question: And the Cmax [11]?
Answer: Its Cmax is 14.1 µM.

Question: What about the half-life [12] of the same compound?
Answer: Its half-life is 2.1 h.

Question: And the AUC(0-t) [13]?
Answer: Its AUC(0-t) is 16.6 µM·h.

Question: What about the Vd [14] of the same compound?
Answer: The Vd was 0.3 L/kg.

Question: And the clearance [15]?
Answer: The clearance was 22.7 mL/min/kg.

Question: And the Activity (Salmonella typhimurium [16])?
Answer: Its Activity is “Non-Toxic”.

Question: And the Activity [17]?
Answer: Its Activity is “Not Active”.

Question: And the Activity (Salmonella typhimurium [18])?
Answer: The Activity was “Non-Toxic”.

Question: What about the clearance [19] of the same compound?
Answer: The clearance was 4.4 mL/min/kg.

Question: What about the pIC50 [20] of the same compound?
Answer: The pIC50 was under 4.10.

Question: What about the Tmax [21] of the same compound?
Answer: Its Tmax is 1.3 h.

Question: What about the AUC(0-t) [22] of the same compound?
Answer: Its AUC(0-t) is 8 µM·h.

Question: What about the Tmax [23] of the same compound?
Answer: Its Tmax is 0.8 h.

Question: What about the AUC(0-t) [24] of the same compound?
Answer: The AUC(0-t) was 3.8 µM·h.

Question: And the half-life [25]?
Answer: The half-life was 1.9 h.

Question: What about the Activity (Mus musculus [26]) of the same compound?
Answer: The Activity was -16%.

Question: What about the Activity (Mus musculus [27]) of the same compound?
Answer: The Activity was -46%.

Question: What about the Activity (Salmonella typhimurium [28]) of the same compound?
Answer: Its Activity is “Non-Toxic”.

Question: What about the fraction unbound [29] of the same compound?
Answer: Its fraction unbound is 0.054.

Question: And the Tmax [30]?
Answer: Its Tmax is 0.5 h.

Question: What about the inhibition at 30 µM (hERG (KCNH2)) of the same compound?
Answer: Its inhibition at 30 µM is 29%.

Question: And the Vd [31]?
Answer: The Vd was 0.5 L/kg.

Question: What about the clearance [32] of the same compound?
Answer: Its clearance is 2.9 mL/min/kg.

Question: What about the half-life [33] of the same compound?
Answer: Its half-life is 1.8 h.

Question: What about the Activity (Salmonella typhimurium [34]) of the same compound?
Answer: The Activity was “Non-Toxic”.

Question: What about the clearance [35] of the same compound?
Answer: Its clearance is 7.2 mL/min/kg.

Question: What about the Activity (Mus musculus [36]) of the same compound?
Answer: The Activity was -59%.

Question: And the inhibition at 10 µM (sodium channel)?
Answer: The inhibition at 10 µM was 9%.
